pIC50: −log10 of the molar value. In brackets after ≈: the same amount, converted by molar mass. Read-outs that look alike come from different tables or passages of the source. Square brackets hold non-standard residues; d marks the D form. Peptide text beside a SMILES is read from it.
Tests used:
[1] = tested on: P. aeruginosa; assay: Antimicrobial tests (MIC/MBC, two-fold serial dilution); format: cell-based, Pseudomonas aeruginosa (ATCC 9037); conditions: Table 3, n=4
[2] = Cytotoxicity assay (resazurin); format: cell-based; conditions: human
Experimental: Normal human cells used were BEAS-2B (ATCC CRL-9609), IMR-90 (ATCC CCL-186) and Human Umbilical Vein Endothelial Cells (HUVEC) (from Sigma-Aldrich) corresponding respectively to human normal lung epithelial, normal lung fibroblast cells and human normal endothelial cells. All cells except HUVEC cells were cultured in Dulbecco's modified essential medium (DMEM) supplemented with 10% fetal calf serum (FCS), 1% L-glutamine and 1% antibiotics (all from Invitrogen). HUVEC cells were cultured in specific endothelial media (from Sigma Aldrich). Cells were seeded onto […] maintained in a 5% CO2 incubator at 37 °C. Cells grown on 25 cm^2 flasks were detached using trypsin-EDTA solution (from Thermofisher), counted using Mallassez counting chamber and seeded into 96-well cell culture plates (Greiner bio-one) at approximately 10,000 cells per well. The cells were left to grow for 48-72 h at 37 °C in a 5% CO2 incubator until they reached confluence. Plates were then aspirated and increasing concentrations of peptides diluted in culture media were added to the cells for 48 h at 37 °C in a 5% CO2 incubator. At the end of the incubation, wells were emptied and cell viability was evaluated using Resazurin based in vitro toxicity assay kit (from Sigma-Aldrich) following manufacturer's instructions. Briefly, Resazurin stock solution was diluted 1:10 in sterile PBS containing calcium and magnesium (PBS, pH 7.4) and empty wells were filled with 100 µL of the diluted solution. After 4 h incubation at 37 °C, fluorescence intensity was measured using microplate reader (Synergy Mx, Biotek) with an excitation wavelength of 530 nm and an emission wavelength of 590 nm. The fluorescence values were normalized by the controls (buffer treated cells) and expressed as percent viability. The IC50 values of peptides on cell viability (i.e. the concentration of derivative causing a reduction of 50% of cell viability) were determined using GraphPad® Prism 7 software. t-Test and two way ANOVA analyses were used to address the significant differences between mean values with significance set at p < 0.05.

[3] = tested on: Pseudomonas aeruginosa; assay: Stability of the peptides to proteases and human serum (MIC of digested peptides); format: in vitro ADME; conditions: against Pseudomonas aeruginosa
Experimental: In order to evaluate the stability of the peptides to condition they will face in vivo, their resistance to proteases and human serum was evaluated (Oyama et al., 2017 Biofilms Microbiomes, Dec 1;3:33). Briefly, one volume of peptides (at 1 mM) was diluted in one volume of proteases (Pepsin, Trypsin, Chymotrypsin, Papain all from Sigma Aldrich and diluted at 2 mg/ml in HCl 10 mM pH2 for Pepsin, PBS pH 7 for Trypsin and Chymotrysin and PBS pH 6 for Papain) or human serum (Sigma Aldrich H4522). Peptides incubated in the same conditions in PBS were used as controls. After 4 h (for proteases) and 4 or 24 h (for human serum) of incubation at 37°C, PMSF was added to the reaction mixture at a final concentration of 100 µM to stop the digestion. MIC of the digested peptides were then determined as explained above.

[4] = tested on: MDA-MB-231; assay: Antitumor / antiproliferative activity (resazurin); format: cell-based, human; conditions: breast cancer cells; 5,000 cells/well; 48 h; read-out: IC50 antiproliferative effect MDA-MB-231
Experimental: (§1) Human cancer cell lines (Mia PaCa-2 (CRL-1420), PC-3 (CRL-1435), MDA-MB-231 (HTB-26)) and normal lung fibrobasts (BEAS-2B (ATCC CRL-9609) and IMR-90 (ATCC CCL-186)) were obtained from American Type Culture Collection (ATCC). HUVEC cells were obtained from Sigma Aldrich and were grown in defined all-in-one ready to use endothelial cell growth medium (Sigma Aldrich). Other cells were cultured in Dulbecco's modified Eagle's medium (DMEM, Gibco Life Technologies) supplemented with 10% heat-inactivated fetal calf serum (FCS, Lonza) at 37 °C in an incubator containing 5% CO2. Cells were sub-cultured in new media every 3-4 days. Antiproliferative / antitumor effects of the peptides were measured as previously described (Borie et al., Eur J Med Chem. 2018;148:306-313). Briefly, cells were detached from growing flask using trypsin, cells were counted and seeded in 96 well-plates in the growth media at an initial cell density of 5000 cells/well. Cells were left for 4 h to attach to the wells. Cells were then treated with increasing concentrations of peptides diluted in culture media. After 48 h incubation at 37 °C in a 5% CO2 incubator, wells were emptied and cell number was evaluated using Resazurin based in vitro toxicity assay kit (from Sigma-Aldrich) following manufacturer's instructions. Briefly, Resazurin stock solution was diluted 1:10 in sterile PBS containing calcium and magnesium (PBS, pH 7.4) and empty wells were filled with 100 µL of the diluted solution. After 4 h incubation at 37 °C, fluorescence intensity was measured using microplate reader (Synergy Mx, Biotek) with an excitation wavelength of 530 nm and an emission wavelength of 590 nm. The fluorescence values were normalized by the controls (buffer treated cells) and expressed as per-cent viability. The IC50 values of peptides on cell division / proliferation (i.e. the concentration of derivative causing a reduction of 50% of cell division) were determined using GraphPad ® Prism 7 software. t-Test and two way ANOVA analyses were used to address the significant differences between mean values with significance set at p < 0.05.

[5] = tested on: MiaPaCa-2; assay: Antitumor / antiproliferative activity (resazurin); format: cell-based, human; conditions: pancreas cancer cells; 5,000 cells/well; 48 h; read-out: IC50 antiproliferative effect MiaPaCa-2
Experimental: as §1

[6] = tested on: PC-3; assay: Antitumor / antiproliferative activity (resazurin); format: cell-based, human; conditions: prostate cancer cells; 5,000 cells/well; 48 h; read-out: IC50 antiproliferative effect PC-3
Experimental: as §1

[7] = tested on: P. aeruginosa
[8] = tested on: A.baumani
[9] = tested on: L. lactis
[10] = tested on: B. subtilis (Nisin-resistant)
[11] = tested on: A. gandavensis
[12] = tested on: E. coli EHEC K88
[13] = tested on: P. aeruginosa FQR
[14] = tested on: P. aeruginosa 01
[15] = tested on: S. flexneri
[16] = tested on: C. farmeri
[17] = tested on: C. rodentium
[18] = tested on: S. enterica
[19] = tested on: V. alginolyticus
[20] = tested on: H. pylori
[21] = tested on: M. smegmatis; conditions: 72 h
[22] = tested on: P. aeruginosa; assay: Selection for resistant bacteria (serial passaging); format: cell-based; conditions: daily exposure at sub-MIC levels, 30 days; antibiotics: after 10 days
Experimental: (§2) To evaluate if populations of AMP-resistant bacteria could be selected, cultures were continuously exposed to LTX-gallicune-1 (I1N1) and LTX-gallicune-2(R1W8) peptides for a duration of 30 days, as previously described (Oyama et al., 2017 Biofilms Microbiomes, Dec 1;3:33). Briefly, broth microdilution susceptibility testing was performed using a standard doubling-dilution series of gallicune peptides concentrations on day 1. Following incubation of the cultures for 24 h, and determination of the MIC, the well that contained the highest concentration of AMPs permitting growth was diluted 1: 1000 in MH and used to provide the inoculum for the next MIC assay; this process was repeated daily for 30 days.

[23] = tested on: S. aureus; assay: Antimicrobial tests (MIC, two-fold serial dilution); format: cell-based, Staphylococcus aureus (ATCC 6538P); conditions: Staphylococcus aureus; Table 3; n=4
[24] = tested on: E. coli; assay: as above; format: cell-based, E. coli (ATCC 8739); conditions: Escherichia coli; Table 3; n=4
[25] = tested on: B. subtilis; assay: as above; format: cell-based, Bacillus subtilis (ATCC 6633); conditions: Bacillus subtilis; Table 3; n=4
[26] = tested on: B. subtilis; assay: Selection for resistant bacteria (serial passaging); format: cell-based; conditions: daily exposure at sub-MIC levels, 30 days; antibiotic: after 10 days
Experimental: as §2

[27] = tested on: MDA-MB-231; assay: Antitumor / antiproliferative activity (resazurin); format: cell-based; conditions: Homo sapiens, breast cancer cells, 5,000 cells/well, 48 h, read-out: IC50 antiproliferative effect MDA-MB-231
Experimental: as §1, with “The IC50 values of peptides on cell division / proliferation (i.e. the concentration of derivative causing a reduction of 50% of cell division) were determined using GraphPad ® Prism 7 software. t-Test and two way ANOVA analyses were used to address the significant differences between mean values with significance set at p < 0.05.” left out

[28] = tested on: MiaPaCa-2; assay: Antitumor / antiproliferative activity (resazurin); format: cell-based; conditions: Homo sapiens, MIA PaCa-2; pancreas cancer cells; 5,000 cells/well; 48 h; read-out: IC50 antiproliferative effect MiaPaCa-2
Experimental: as §1, with “The IC50 values of peptides on cell division / proliferation (i.e. the concentration of derivative causing a reduction of 50% of cell division) were determined using GraphPad ® Prism 7 software. t-Test and two way ANOVA analyses were used to address the significant differences between mean values with significance set at p < 0.05.” left out

[29] = tested on: PC-3; assay: Antitumor / antiproliferative activity (resazurin); format: cell-based; conditions: Homo sapiens, prostate cancer cells, 5,000 cells/well, 48 h, read-out: IC50 antiproliferative effect PC-3
Experimental: as §1, with “The IC50 values of peptides on cell division / proliferation (i.e. the concentration of derivative causing a reduction of 50% of cell division) were determined using GraphPad ® Prism 7 software. t-Test and two way ANOVA analyses were used to address the significant differences between mean values with significance set at p < 0.05.” left out

## Gentamycine
[1]
  MIC: 0.3 µM

## CC[C@@H](C)[C@@H](N)C(=O)N[C@@H](CC(C)C)C(=O)N[C@@H](CCCCN)C(=O)N[C@@H](C)C(=O)N[C@H](C(=O)N[C@@H](CCCCN)C(=O)N[C@@H](CCCCN)C(=O)N[C@@H](CC(C)C)C(=O)N[C@@H](CC(C)C)C(=O)N[C@@H](CCCCN)C(=O)N[C@H](CC(N)=O)C(N)=O)[C@@H](C)CC [LTX-gallicune-1(i1D-n11D)] (H-[dI]LKAIKKLLK[dN]-NH2)
[2]; BEAS-2B normal lung epithelial cells, normal lung epithelium, read-out: Cytotoxicity IC50 (µM) BEAS
  CC50 at 48 h: 391 µM
[2]; HUVEC (human umbilical vein endothelial cells), normal endothelium, read-out: Cytotoxicity IC50 (µM) HUVEC
  CC50 at 48 h: 436 µM
[2]; IMR-90 normal lung fibroblast cells, read-out: Cytotoxicity IC50 (µM) IMR90
  CC50 at 48 h: 362 µM
[3]; after 4 h at 37°C in human serum
  MIC (µM) Serum4h: >50 µM
[3]; after 4 h at 37°C with chymotrypsin, pH 7
  MIC (µM) Chymotrypsin: >50 µM
[3]; after 4 h at 37°C with pepsin, pH2
  MIC (µM) Pepsin: >50 µM
[3]; after 4 h at 37°C with trypsin, pH 7
  MIC (µM) Trypsin: >50 µM
[3]; after 24 h at 37°C in human serum
  MIC (µM) Serum24h: 25 µM
[3]; peptide incubated in PBS, not treated with proteases
  MIC (µM) Control: 3.125 µM
[4]
  pIC50: 4.12
[5]
  pIC50: 5.34
[6]
  pIC50: 4.49
[7]
  MBC (µM) P. aeruginosa: 1.5 µM (≈ 1.92 µg/mL)
  MIC (µM) P. aeruginosa: 1.5 µM (≈ 1.92 µg/mL)
  MIC PA: 1.5 µM (≈ 1.92 µg/mL)
[8]
  MIC (µM) A.baumani: 12.5 µM (≈ 16 µg/mL)
[9]
  MBC (µM) L. lactis: 0.78 µM (≈ 0.999 µg/mL)
  MIC (µM) L. lactis: 1.5 µM (≈ 1.92 µg/mL)
[10]
  MBC (µM) B. subtilis (Nisin-resistant): 6.25 µM (≈ 8 µg/mL)
  MIC (µM) B. subtilis (Nisin-resistant): 6.25 µM (≈ 8 µg/mL)
[11]
  MBC (µM) A. gandavensis: 1.5 µM (≈ 1.92 µg/mL)
  MIC (µM) A. gandavensis: 1.5 µM (≈ 1.92 µg/mL)
[12]
  MBC (µM) E. coli EHEC K88: 50 µM (≈ 64 µg/mL)
  MIC (µM) E. coli EHEC K88: 25 µM (≈ 32 µg/mL)
[13]
  MBC (µM) P. aeruginosa FQR: 25 µM (≈ 32 µg/mL)
  MIC (µM) P. aeruginosa FQR: 6.25 to 12.5 µM
[14]
  MBC (µM) P. aeruginosa 01: 12.5 µM (≈ 16 µg/mL)
  MIC (µM) P. aeruginosa 01: 6.25 µM (≈ 8 µg/mL)
[15]
  MBC (µM) S. flexneri: 12.5 µM (≈ 16 µg/mL)
  MIC (µM) S. flexneri: 12.5 µM (≈ 16 µg/mL)
[16]
  MBC (µM) C. farmeri: 12.5 µM (≈ 16 µg/mL)
  MIC (µM) C. farmeri: 6.25 µM (≈ 8 µg/mL)
[17]
  MBC (µM) C. rodentium: 25 µM (≈ 32 µg/mL)
  MIC (µM) C. rodentium: 25 µM (≈ 32 µg/mL)
[18]
  MBC (µM) S. enterica: 25 µM (≈ 32 µg/mL)
  MIC (µM) S. enterica: 25 µM (≈ 32 µg/mL)
[19]
  MBC (µM) V. alginolyticus: 0.78 µM (≈ 0.999 µg/mL)
  MIC (µM) V. alginolyticus: 0.78 µM (≈ 0.999 µg/mL)
[20]
  MBC (µM) H. pylori: 25 µM (≈ 32 µg/mL)
  MIC (µM) H. pylori: 25 µM (≈ 32 µg/mL)
[21]
  MIC (µM) M. smegmatis: 25 µM (≈ 32 µg/mL)

## CO/N=C1\CN(c2nc3c(cc2F)c(=O)c(C(=O)O)cn3C2CC2)CC1CN (stereo not drawn) [Gemifloxacin]
[22]
  change of MIC against P. aeruginosa on serial passaging (resistance acquisition): increasing

## CC1(C)S[C@@H]2[C@H](NC(=O)[C@H](N)c3ccc(O)cc3)C(=O)N2[C@H]1C(=O)O [Amoxicilline]
[1]; Pseudomonas aeruginosa
  MIC: > 100 µM
[23]
  MIC: 0.9 µM (≈ 0.329 µg/mL)
[24]
  MIC: 9 µM (≈ 3.29 µg/mL)
[25]
  MIC: 0.45 to 0.9 µM (≈ 0.164 to 0.329 µg/mL)

## C/C(=C\C(=O)OCCCCCCCCC(=O)O)C[C@@H]1OC[C@H](C[C@@H]2O[C@H]2[C@@H](C)[C@H](C)O)[C@@H](O)[C@H]1O [Mupirocin]
[26]
  change of MIC against B. subtilis on serial passaging (resistance acquisition): increasing

## COc1cccc2c1C(=O)c1c(O)c3c(c(O)c1C2=O)C[C@@](O)(C(=O)CO)C[C@@H]3O[C@H]1C[C@H](N)[C@H](O)[C@H](C)O1 [Doxo, Doxorubicine]
[27]
  pIC50: 7.10
[28]
  pIC50: 6.72
[29]
  pIC50: 6.50
